Literature values, collected in patent US20130203858A1, “Fast-Dissolving Solid Pharmaceutical Form for Treating Bacterial Infections” (Nanocore Biotecnologia S.A., priority 2010, published 2013).

How the values were obtained:
[1] = WO2009/061780 composition in the absence of PVP

CS(=O)(=O)c1ccc([C@@H](O)[C@@H](CF)NC(=O)C(Cl)Cl)cc1 [florfenicol, Florfenicol]
solubility in water: about 1.2 mg/mL | portion of the drug that solubilises in water (without addition of surfactants): about 20% | portion of the drug solubilized in water [1]: about 40%
